For test [1], the target named is TRPV1 (Rattus norvegicus, UniProt O35433, D509A). Kind of test: excised inside-out patch clamp, Xenopus oocytes. The class given is cell-based.
In test [2] the target is TRPV1 (Rattus norvegicus, UniProt O35433). The test is described as follows: excised inside-out patch clamp, Xenopus oocytes; partial inhibition with PtdIns([…])P2, partial activation without it. It is filed as cell-based. The settings on record: read-out: % inhibition at 50 μM.

Broadly, the inhibition is the drop in the measured response relative to a control, in per cent.

Chain of TRPV1 (Rattus norvegicus, UniProt O35433, D509A) (O35433 whole entry D509A): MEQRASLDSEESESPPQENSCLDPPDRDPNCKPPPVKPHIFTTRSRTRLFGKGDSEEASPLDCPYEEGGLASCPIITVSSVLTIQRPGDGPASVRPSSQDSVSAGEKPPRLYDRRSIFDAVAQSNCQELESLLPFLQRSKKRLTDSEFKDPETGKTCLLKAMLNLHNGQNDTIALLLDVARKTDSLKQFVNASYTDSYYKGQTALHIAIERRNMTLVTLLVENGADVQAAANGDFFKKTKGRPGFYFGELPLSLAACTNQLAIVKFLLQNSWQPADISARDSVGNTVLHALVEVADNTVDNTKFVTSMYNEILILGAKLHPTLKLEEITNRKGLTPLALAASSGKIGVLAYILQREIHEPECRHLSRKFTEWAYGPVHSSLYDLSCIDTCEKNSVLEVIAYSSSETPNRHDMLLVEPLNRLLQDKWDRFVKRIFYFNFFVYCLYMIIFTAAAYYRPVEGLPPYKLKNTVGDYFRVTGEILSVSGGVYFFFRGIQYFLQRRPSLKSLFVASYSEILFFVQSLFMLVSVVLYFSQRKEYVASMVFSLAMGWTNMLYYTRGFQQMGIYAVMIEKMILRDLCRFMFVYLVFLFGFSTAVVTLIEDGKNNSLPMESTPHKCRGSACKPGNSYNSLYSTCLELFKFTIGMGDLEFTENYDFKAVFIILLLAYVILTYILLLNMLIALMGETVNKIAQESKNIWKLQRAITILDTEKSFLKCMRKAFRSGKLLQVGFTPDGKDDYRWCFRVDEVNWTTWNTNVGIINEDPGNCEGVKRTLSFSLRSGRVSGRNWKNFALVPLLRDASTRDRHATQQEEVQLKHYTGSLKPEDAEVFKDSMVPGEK
Chain of TRPV1 (Rattus norvegicus, UniProt O35433) (O35433 whole entry): as the sequence (O35433 whole entry D509A) above, with A509D counted along it

Consider `CCCCCCCC(=O)OC[C@H](COP(=O)(O)O[C@@H]1[C@H](O)[C@H](O)[C@@H](O)[C@H](O)[C@H]1O)OC(=O)CCCCCCC` [diC8 PtdIns], for which the “excised inside-out patch clamp, Xenopus oocytes” value in test [1] is “The D509A mutant on the other hand was clearly inhibited by PtdIns”. For the same compound, the inhibition at 50 µM in test [2] is about 50%.

Values taken from PMC8095115, “Dual regulation of TRPV1 channels by phosphatidylinositol via functionally distinct binding sites” (The Journal of Biological Chemistry, 2021).
